Structures can show the parent of a compound that is named as a salt.
Molecular target: T1, human blood clotting factor VIIa (Homo sapiens, UniProt P08709)
T1 construct: 5 nM human blood clotting factor VIIa
Test: Inhibiting activity against blood clotting factor VIIa (Spectrozyme VII chromogenic assay)
Assay type: biochemical
Conditions: 10 nM human tissue factor, 5 nM human blood clotting factor VIIa, Spectrozyme VII substrate, 40 minutes at room temperature, absorbance 405 nm
Method: Pharmacological Activity Test (Inhibiting Activity Against Blood Clotting Factor VIIa)
Compounds of the present invention (Examples 1-4, 1-26, 1-39, 1-40 and 8-3) were each dissolved in dimethyl sulfoxide to 5 mg/ml, and then each solution was diluted 50-fold with reaction buffer to prepare a 100 μg/ml solution (2% dimethyl sulfoxide solution) Also, a 10-fold dilution series with reaction buffer was prepared with the compound solutions from 100 μg/ml to 1 ng/ml. Separately, dimethyl sulfoxide alone was diluted 50-fold with reaction buffer to prepare a 2% dimethyl sulfoxide solution as a control. The composition of the reaction buffer was 50 mM Tris-acetate (pH 7.5), 15 mM calcium chloride (CaCl2), 0.15 M sodium chloride (NaCl) and 6 mg/ml Cephalin. There were also added to the buffer 10 nM human tissue factor (TF) and 5 nM human blood clotting factor VIIa, to prepare enzyme solutions. After separating off 65 μl of each solution, a 10 μl portion of the 2% dimethyl sulfoxide solution of each compound of the invention was added and preincubation was performed at room temperature. As a substrate there was added 25 μl of 1.0 mM Spectrozyme VII, and reaction was conducted for 40 minutes at room temperature. The enzyme reaction rate was quantified by the change ion absorbance of released 4-nitroanilide at 405 nm.
For measurement of the inhibiting activity against human blood clotting factor VIIa, the enzyme reaction rate was determined in the presence of the above-mentioned compounds of the present invention from 10 μg/ml to 0.1 ng/ml. The IC50 values were calculated based on nonlinear regression analysis, as an index of the inhibiting activity against human blood clotting factor VIIa.

T1 sequence (P08709 213-466 limits assumed): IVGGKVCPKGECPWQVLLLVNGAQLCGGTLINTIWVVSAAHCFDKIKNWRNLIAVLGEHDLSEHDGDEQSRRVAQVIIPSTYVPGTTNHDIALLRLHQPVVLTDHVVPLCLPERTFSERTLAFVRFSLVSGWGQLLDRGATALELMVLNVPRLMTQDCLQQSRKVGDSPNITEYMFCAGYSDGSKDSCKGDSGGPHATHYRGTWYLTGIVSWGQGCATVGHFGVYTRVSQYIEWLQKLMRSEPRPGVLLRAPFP
T1 sequence (P08709 61-212 limits assumed): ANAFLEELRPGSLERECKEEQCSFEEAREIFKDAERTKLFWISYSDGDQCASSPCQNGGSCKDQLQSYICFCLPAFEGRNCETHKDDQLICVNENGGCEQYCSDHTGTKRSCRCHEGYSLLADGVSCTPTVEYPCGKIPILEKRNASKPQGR
T1 sequence (P13726 33-295 partner): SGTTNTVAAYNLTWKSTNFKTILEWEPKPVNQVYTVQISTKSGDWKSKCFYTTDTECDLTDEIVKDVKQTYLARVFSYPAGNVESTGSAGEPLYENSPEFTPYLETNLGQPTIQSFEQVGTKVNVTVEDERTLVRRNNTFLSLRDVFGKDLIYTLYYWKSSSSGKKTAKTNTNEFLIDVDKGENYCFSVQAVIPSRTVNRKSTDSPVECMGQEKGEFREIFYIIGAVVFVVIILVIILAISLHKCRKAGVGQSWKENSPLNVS

SMILES	IC50
N=C(N)c1ccc2cc(Oc3ccc(NS(=O)(=O)c4ccc5ccccc5c4)cc3C(=O)O)ccc2c1 [Example 1-4, 2-(6-amidino-2-naphthyloxy)-5-(2-naphthalenesulfonyl)aminobenzoic acid trifluoroacetate]	1430 nM
COc1ccc(S(=O)(=O)Nc2ccc(Oc3ccc4cc(C(=N)N)ccc4c3)c(-c3ccccc3C(=O)O)c2)cc1 [Example 1-26, 2′-(6-amidino-2-naphthyloxy)-5′-(4-methoxybenzenesulfonyl)amino-1,1′-biphenyl-2-carboxylic acid trifluoroacetate]	210 nM
CC(=O)N1CCc2ccc(S(=O)(=O)Nc3ccc(Oc4ccc5cc(C(=N)N)ccc5c4)c(-c4ccccc4C(=O)O)c3)cc2C1 [Example 1-39, 2′-(6-amidino-2-naphthyloxy)-5′-[1,2,3,4-tetrafluoro-2-(acetyl)isoquinoline-7-sulfonyl)amino-1,1′-biphenyl-2-carboxylic acid trifluoroacetate]	30 nM
Cc1ccc(S(=O)(=O)Nc2ccc(Oc3ccc4cc(C(=N)N)ccc4c3)c(-c3ccccc3C(=O)O)c2)cc1Cl [Example 1-40, 2′-(6-amidino-2-naphthyloxy)-5′-(3-chloro-4-methylbenzenesulfonyl)amino-1,1′-biphenyl-2-carboxylic acid trifluoroacetate]	40 nM
Cc1ccc(S(=O)(=O)Nc2ccc(Oc3ccc4cc(C(=N)N)ccc4c3)c(-c3ccc(C(=O)NCC(C)C)cc3C(=O)O)c2)cc1Cl [Example 8-3, 2′-(6-amidino-2-naphthyloxy)-4-(2-methylpropylcarbamoyl)-5′-(3-chloro-4-methylbenzenesulfonyl)amino-1,1′-biphenyl-2-carboxylic acid trifluoroacetate]	4 nM

From US6916837B2, “Amidino derivatives and anticoagulants and thrombosis therapeutic agents containing them” (Eisai Co., Ltd., priority 2001, dated 2005)
